The target in one assay is T1, KRAS G12C 1-169, his-tagged protein, GDP-loaded (Homo sapiens, UniProt P01116, G12C).
T1 construct: KRAS G12C 1-169, his-tagged protein, GDP-loaded
Kind of assay: Biochemical assay: covalent modification of KRAS G12C measured by mass spectrometry (RapidFire/TOF or Q-Exactive). Also: time not given here. It counts as binding. The following applies: tested at 32 μM. The essentials:
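GDP-loaded KRAS G12C 1-169 (his-tagged, 2 μM or 0.5 μM in 20 mM Hepes, 150 mM NaCl, 1 mM MgCl2) reacted with compound at 32 μM or 8 μM final, then quenched with formic acid. Intact-protein LC-MS (RapidFire/TOF or Q-Exactive) with charge-envelope deconvolution; % modification from modified vs unmodified peak intensities.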
Take `CC#CC(=O)N1CCC2(CC1)CCN(c1cc(OCc3ccccn3)cc(-c3c(C)ccc4[nH]ncc34)c1C#N)C2` [Compound I-59, 2-(8-(but-2-ynoyl)-2,8-diazaspiro[4.5]decan-2-yl)-6-(5-methyl-1H-indazol-4-yl)-4-(pyridin-2-ylmethoxy) benzonitrile]: the Bind % result was “+ (+ indicates binding activity greater than 0% and up to 50%)”. Same read-out and setting: under `C=CC(=O)N1CCC2(CCN(c3cc(OCc4ccccn4)cc(-c4c(C)ccc5[nH]ncc45)c3C#N)C2)C1` (stereo not drawn) [Compound I-61, 2-(7-acryloyl-2,7-diazaspiro[4.4]nonan-2-yl)-6-(5-methyl-1H-indazol-4-yl)-4-(pyridin-2-ylmethoxy) benzonitrile] stands “+ (+ indicates binding activity greater than 0% and up to 50%)”.

In the case of `C=CC(=O)N1CCC2(CCCN(c3cc(OCc4ccccn4)cc(-c4c(C)ccc5[nH]ncc45)c3C#N)C2)C1` (stereo not drawn) [Compound I-62, 2-(2-acryloyl-2,7-diazaspiro[4.5]decan-7-yl)-6-(5-methyl-1H-indazol-4-yl)-4-(pyridin-2-ylmethoxy) benzonitrile], the Bind % entry is “+ (+ indicates binding activity greater than 0% and up to 50%)”. As for `CC#CC(=O)N1CCC2(CCCN(c3cc(OCc4ccccn4)cc(-c4c(C)ccc5[nH]ncc45)c3C#N)C2)C1` (stereo not drawn) [Compound I-63, 2-(2-(but-2-ynoyl)-2,7-diazaspiro[4.5]decan-7-yl)-6-(5-methyl-1H-indazol-4-yl)-4-(pyridin-2-ylmethoxy) benzonitrile], the Bind % entry was “+ (+ indicates binding activity greater than 0% and up to 50%)”. Still for that read-out and setting: the result for `CC#CC(=O)N1CCC2(CC1)CN(c1cc(OCc3ccccn3)cc(-c3c(C)ccc4[nH]ncc34)c1C#N)C2` [Compound I-64, 2-(7-(but-2-ynoyl)-2,7-diazaspiro[3.5]nonan-2-yl)-6-(5-methyl-1H-indazol-4-yl)-4-(pyridin-2-ylmethoxy) benzonitrile] reads “+ (+ indicates binding activity greater than 0% and up to 50%)”. On the same count and under the same terms, the result for `C=CC(=O)N1CCC2(CC1)CN(c1cc(OCc3ccccn3)cc(-c3c(C)ccc4[nH]ncc34)c1C#N)C2` [Compound I-65, 2-(7-acryloyl-2,7-diazaspiro[3.5]nonan-2-yl)-6-(5-methyl-1H-indazol-4-yl)-4-(pyridin-2-ylmethoxy) benzonitrile] reads “+ (+ indicates binding activity greater than 0% and up to 50%)”; that for `C=CC(=O)N1CCCC2(C1)CN(c1cc(OCc3ccccn3)cc(-c3c(C)ccc4[nH]ncc34)c1C#N)C2` [Compound I-66, 2-(6-acryloyl-2,6-diazaspiro[3.5]nonan-2-yl)-6-(5-methyl-1H-indazol-4-yl)-4-(pyridin-2-ylmethoxy) benzonitrile], “+ (+ indicates binding activity greater than 0% and up to 50%)”; that for `CC#CC(=O)N1CCCC2(C1)CN(c1cc(OCc3ccccn3)cc(-c3c(C)ccc4[nH]ncc34)c1C#N)C2` [Compound I-67, 2-(6-(but-2-ynoyl)-2,6-diazaspiro[3.5]nonan-2-yl)-6-(5-methyl-1H-indazol-4-yl)-4-(pyridin-2-ylmethoxy) benzonitrile], “+ (+ indicates binding activity greater than 0% and up to 50%)”.

Take `Cc1ccc2cnn(C)c2c1-c1cc(N2CCCC(O)C2)cc(N2CCC3(CN(C(=O)/C=C/CN(C)C)C3)C2)c1C#N` (stereo not drawn) [Compound I-69, (E)-2-(1,6-dimethyl-1H-indazol-7-yl)-6-(2-(4-(dimethylamino)but-2-enoyl)-2,6-diazaspiro[3.4]octan-6-yl)-4-(3-hydroxypiperidin-1-yl)benzonitrile]: the Bind % result is “+ (+ indicates binding activity greater than 0% and up to 50%)”. In the case of `Cc1ccc2[nH]ncc2c1-c1cc(N2CCCC(O)C2)cc(N2CCC3(CN(C(=O)/C=C/CN(C)C)C3)C2)c1C#N` (stereo not drawn) [Compound I-70, (E)-2-(2-(4-(dimethylamino)but-2-enoyl)-2,6-diazaspiro[3.4]octan-6-yl)-4-(3-hydroxypiperidin-1-yl)-6-(5-methyl-1H-indazol-4-yl)benzonitrile], the Bind % result is given as “++ (++ indicates binding activity from 50 to 75%)”. On the same count and under the same terms, under `CC#CC(=O)N1CC2(C1)CN(c1cc(OCc3ccccn3)cc(-c3c(C)ccc4[nH]ncc34)c1C#N)C2` [Compound I-73, 2-(6-(but-2-ynoyl)-2,6-diazaspiro[3.3]heptan-2-yl)-6-(5-methyl-1H-indazol-4-yl)-4-(pyridin-2-ylmethoxy) benzonitrile] stands “+ (+ indicates binding activity greater than 0% and up to 50%)”; under `CC#CC(=O)N1CCCC2(CCN(c3cc(OCc4ccccn4)cc(-c4c(C)ccc5[nH]ncc45)c3C#N)C2)C1` (stereo not drawn) [Compound I-74, 2-(7-(but-2-ynoyl)-2,7-diazaspiro[4.5]decan-2-yl)-6-(5-methyl-1H-indazol-4-yl)-4-(pyridin-2-ylmethoxy) benzonitrile], “+ (+ indicates binding activity greater than 0% and up to 50%)”. Still for that read-out and setting: the result for `C=CC(=O)N1CCCC2(CCN(c3cc(OCc4ccccn4)cc(-c4c(C)ccc5[nH]ncc45)c3C#N)C2)C1` (stereo not drawn) [Compound I-75, 2-(7-acryloyl-2,7-diazaspiro[4.5]decan-2-yl)-6-(5-methyl-1H-indazol-4-yl)-4-(pyridin-2-ylmethoxy) benzonitrile] reads “+ (+ indicates binding activity greater than 0% and up to 50%)”; that for `C=CC(=O)N1CC2(CCCN(c3cc(OCc4ccccn4)cc(-c4c(C)ccc5[nH]ncc45)c3C#N)C2)C1` [Compound I-78, 2-(2-acryloyl-2,6-diazaspiro[3.5]nonan-6-yl)-6-(5-methyl-1H-indazol-4-yl)-4-(pyridin-2-ylmethoxy) benzonitrile], “+ (+ indicates binding activity greater than 0% and up to 50%)”; that for `CC#CC(=O)N1CC2(CCCN(c3cc(OCc4ccccn4)cc(-c4c(C)ccc5[nH]ncc45)c3C#N)C2)C1` [Compound I-79, 2-(2-(but-2-ynoyl)-2,6-diazaspiro[3.5]nonan-6-yl)-6-(5-methyl-1H-indazol-4-yl)-4-(pyridin-2-ylmethoxy) benzonitrile], “+ (+ indicates binding activity greater than 0% and up to 50%)”. Regarding `C=CC(=O)N1CC2(CCN(c3cc(N4CCC(O)CC4)cc(-c4c(C)ccc5[nH]ncc45)c3C#N)CC2)C1` [Compound I-81, 2-(2-acryloyl-2,7-diazaspiro[3.5]nonan-7-yl)-4-(4-hydroxypiperidin-1-yl)-6-(5-methyl-1H-indazol-4-yl)benzonitrile], the Bind % result is “+ (+ indicates binding activity greater than 0% and up to 50%)”. The same measure, in the same setting: under `C=CC(=O)N1CC2(CCN(c3cc(N4CCC(N5CCN(C)[C@@H](C)C5)CC4)cc(-c4c(C)ccc5[nH]ncc45)c3C#N)CC2)C1` [Compound I-82, 2-(2-acryloyl-2,7-diazaspiro[3.5]nonan-7-yl)-4-(4-((S)-3,4-dimethyl-piperazin-1-yl)piperidin-1-yl)-6-(5-methyl-1H-indazol-4-yl)benzonitrile] stands “+ (+ indicates binding activity greater than 0% and up to 50%)”; under `C=CC(=O)N1CC2(CCN(c3ccc(OCCCN(C)C)c(-c4c(C)ccc5[nH]ncc45)c3C#N)CC2)C1` [Compound I-83, 6-(2-acryloyl-2,7-diazaspiro[3.5]nonan-7-yl)-3-(3-(dimethylamino)propoxy)-2-(5-methyl-1H-indazol-4-yl)benzonitrile], “+ (+ indicates binding activity greater than 0% and up to 50%)”. On the same count and under the same terms, the result for `C=CC(=O)N1CC2(CCN(c3cc(N4CCOCC4)c(OC)c(-c4c(C)ccc5[nH]ncc45)c3C#N)CC2)C1` [Compound I-84, 6-(2-acryloyl-2,7-diazaspiro[3.5]nonan-7-yl)-3-methoxy-2-(5-methyl-1H-indazol-4-yl)-4-morpholino-benzonitrile] reads “+ (+ indicates binding activity greater than 0% and up to 50%)”.

The same assay, now with this note: tested at a concentration of 8 μM.
`Cc1ccc2[nH]ncc2c1-c1cc(OCc2ccccn2)cc(N2CCC3(CN(C(=O)/C=C/CN(C)C)C3)C2)c1C#N` [Compound I-60, (E)-2-(2-(4-(dimethylamino)but-2-enoyl)-2,6-diazaspiro[3.4]octan-6-yl)-6-(5-methyl-1H-indazol-4-yl)-4-(pyridin-2-ylmethoxy) benzonitrile]: the Bind % result was “+ (+ indicates binding activity greater than 0% and up to 50%)”. `C=CC(=O)N1CC2(CCN(c3cc(OCc4ccccn4)cc(-c4c(C)ccc5[nH]nc(C)c45)c3C#N)C2)C1` [Compound I-71, 2-(2-acryloyl-2,6-diazaspiro[3.4]octan-6-yl)-6-(3,5-dimethyl-1H-indazol-4-yl)-4-(pyridin-2-ylmethoxy) benzonitrile]: the Bind % entry was “+++ (+++ indicates binding activity greater than 75%)”. Consider `C=CC(=O)N1CC2(C1)CN(c1cc(OCc3ccccn3)cc(-c3c(C)ccc4[nH]ncc34)c1C#N)C2` [Compound I-72, 2-(6-acryloyl-2,6-diazaspiro[3.3]heptan-2-yl)-6-(5-methyl-1H-indazol-4-yl)-4-(pyridin-2-ylmethoxy) benzonitrile], for which the Bind % result is “+++ (+++ indicates binding activity greater than 75%)”. Turning to `C=CC(=O)N1CC2(CCN(c3cc(N4CCCC(O)C4)cc(-c4c(C)ccc5[nH]nc(C)c45)c3C#N)C2)C1` (stereo not drawn) [Compound I-76, 2-(2-acryloyl-2,6-diazaspiro[3.4]octan-6-yl)-6-(3,5-dimethyl-1H-indazol-4-yl)-4-(3-hydroxypiperidin-1-yl)benzonitrile], the Bind % entry is given as “++ (++ indicates binding activity from 50 to 75%)”. Same read-out and setting: under `C=CC(=O)N1CC2(CCN(c3cc(N4CCOCC4)c(F)c(-c4c(C)ccc5[nH]ncc45)c3C#N)CC2)C1` [Compound I-80, 6-(2-acryloyl-2,7-diazaspiro[3.5]nonan-7-yl)-3-fluoro-2-(5-methyl-1H-indazol-4-yl)-4-morpholino-benzonitrile] stands “+ (+ indicates binding activity greater than 0% and up to 50%)”.
